Results as given in US20240116985A1, “STAPLED PEPTIDES AND METHODS THEREOF” (priority 2020, published 2024).
Read-outs that look alike come from different tables or passages of the source.

Experiments:
[1] = target: T1, full-length beta-Catenin (Uniprot ID P35222) (Homo sapiens, UniProt P35222); experiment: Fluorescence polarization IC50 (beta-catenin / 5FAM-TCF4 10-53 competition); assay type: binding; details: fluorescence polarization; read-out: beta-Catenin FP IC50
T1 construct: 10 nM full-length beta-Catenin (Uniprot ID P35222)
T1 sequence (P35222 1-781): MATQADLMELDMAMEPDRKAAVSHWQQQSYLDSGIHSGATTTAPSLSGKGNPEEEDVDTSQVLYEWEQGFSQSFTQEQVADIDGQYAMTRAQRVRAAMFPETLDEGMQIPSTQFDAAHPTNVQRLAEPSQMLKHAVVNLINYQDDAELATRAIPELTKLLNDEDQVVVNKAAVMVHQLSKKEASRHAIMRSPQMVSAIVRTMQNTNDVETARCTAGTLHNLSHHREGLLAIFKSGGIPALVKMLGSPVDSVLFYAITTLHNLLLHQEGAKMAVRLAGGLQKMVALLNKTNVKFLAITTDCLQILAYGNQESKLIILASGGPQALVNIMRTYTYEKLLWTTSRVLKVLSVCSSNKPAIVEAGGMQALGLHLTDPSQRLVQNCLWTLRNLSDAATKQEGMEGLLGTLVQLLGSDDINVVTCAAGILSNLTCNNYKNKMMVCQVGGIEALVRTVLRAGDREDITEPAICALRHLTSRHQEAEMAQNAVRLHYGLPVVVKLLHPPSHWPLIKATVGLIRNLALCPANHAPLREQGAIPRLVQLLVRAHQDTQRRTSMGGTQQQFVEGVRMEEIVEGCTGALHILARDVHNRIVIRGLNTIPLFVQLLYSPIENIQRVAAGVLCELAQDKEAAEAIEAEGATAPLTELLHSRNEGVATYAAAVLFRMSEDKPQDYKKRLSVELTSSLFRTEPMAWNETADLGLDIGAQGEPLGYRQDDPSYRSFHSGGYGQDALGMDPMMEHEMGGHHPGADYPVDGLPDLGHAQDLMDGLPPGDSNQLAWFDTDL

[2] = target: T2, beta-catenin/TCF4 engagement (Homo sapiens, UniProt P35222); experiment: Nano-BRET target engagement assay (B-cat-Halo & TCF4-Luc in HEK293 cells); assay type: cell-based; details: read-out: NanoBRET Abs IC50
T2 construct: expressed in transfected cells; host or cells: HEK293
T2 sequence (P35222 1-781): T1 sequence (P35222 1-781)

SMILES | IC50 [1] | IC50 [2] | IC50 ([2]; absolute IC50)
CC(=O)N1CCC[C@]12CCCCCCC1(CCCCCCCCOC(=O)N3CC[C@@](C(=O)N[C@@H](Cc4ccccc4C(F)(F)F)C(=O)N[C@@H](Cc4csc5ccccc45)C(=O)N[C@@H](CCC(N)=O)C(N)=O)(C3)NC(=O)[C@H](CC(C)C)NC(=O)[C@H](Cc3ccccc3)NC(=O)[C@H](C)NC(=O)[C@H](C)NC(=O)[C@H](CN(CC(=O)O)CC(F)(F)F)NC(=O)[C@H](CC(=O)O)NC1=O)NC(=O)[C@H](CC(C)(C)C)NC(=O)[C@H](CC(=O)O)NC2=O (stereo partly drawn) [I-1714, Ac-PL3-Asp-Npg-B5-Asp-TfeGA-Ala-Ala-Phe-Leu-PyrS2-2F3MeF-BztA-Gln-NH2] | 0.372 µM | – | 28.6 µM
CC(=O)N1CCC[C@]12CCCCCCC1(CCCCCCCCOC(=O)N3CC[C@@](C(=O)N[C@@H](Cc4ccsc4)C(=O)N[C@@H](Cc4csc5ccccc45)C(=O)N[C@H](C(N)=O)C(C)C)(C3)NC(=O)[C@H]([C@@H](C)O)NC(=O)[C@H](Cc3ccccc3)NC(=O)[C@H](C)NC(=O)[C@H](CCCCNC(C)C)NC(=O)[C@H](CN(CC(=O)O)CC(F)(F)F)NC(=O)[C@H](CC(=O)O)NC1=O)NC(=O)[C@H](CC(C)(C)C)NC(=O)[C@H](CC(=O)O)NC2=O (stereo partly drawn) [I-1770, Ac-PL3-Asp-Npg-B5-Asp-TfeGA-iPrLys-Ala-Phe-Thr-PyrS2-3Thi-BztA-Val-NH2] | 0.175 µM | – | > 20 µM
CC(=O)N1CCC[C@]12CC=CCCCC1(CCCC=CCCCOC(=O)N3CC[C@@](C(=O)N[C@@H](Cc4ccccc4C(F)(F)F)C(=O)N[C@@H](Cc4c(C(F)(F)F)[nH]c5ccccc45)C(=O)N[C@@H](CCC(N)=O)C(N)=O)(C3)NC(=O)[C@H](CC(C)C)NC(=O)[C@H](Cc3ccccc3)NC(=O)[C@H](C)NC(=O)[C@H](C)NC(=O)[C@H](Cc3cccc(C(=O)O)c3)NC(=O)[C@H](CC(=O)O)NC1=O)NC(=O)[C@H](CC(C)(C)C)NC(=O)[C@H](CC(=O)O)NC2=O (stereo partly drawn) [I-2484, Ac-PL3-Asp-Npg-B5-Asp-3COOHF-Ala-Ala-Phe-Leu-PyrS2-2F3MeF-2F3MeW-Gln-NH2] | 6.29 µM | – | > 20 µM
CC(=O)N1CCC[C@]12CC=CCCCC1(CCCC=CCCCOC(=O)N3CC[C@@](C(=O)N[C@@H](Cc4ccccc4Cl)C(=O)N[C@@H](Cc4csc5ccccc45)C(N)=O)(C3)NC(=O)[C@H](CC(C)C)NC(=O)[C@H](Cc3ccccc3)NC(=O)[C@H](C)NC(=O)[C@H](C)NC(=O)[C@H](Cc3cccc(C(=O)O)c3)NC(=O)[C@H](CC(=O)O)NC1=O)NC(=O)[C@H](CC(C)(C)C)NC(=O)[C@H](CC(=O)O)NC2=O (stereo partly drawn) [I-1852, Ac-PL3-Asp-Npg-B5-Asp-3COOHF-Ala-Ala-Phe-Leu-PyrS2-2C1F-BztA-NH2] | 0.048 µM | 4.9 µM | –
CC(=O)N1CCC[C@]12CC=CCCCC1(CCCC=CCCCOC(=O)N3CC[C@@](C(=O)N[C@@H](Cc4ccccc4)C(=O)N[C@@H](Cc4csc5ccccc45)C(=O)N[C@@H](Cc4c[nH]cn4)C(N)=O)(C3)NC(=O)[C@H](CC(N)=O)NC(=O)[C@H](Cc3ccccc3)NC(=O)[C@H](C)NC(=O)[C@H](CCCCNC(C)C)NC(=O)[C@H](CCC(N)=O)NC(=O)[C@H](CC(=O)O)NC1=O)NC(=O)[C@H](CC1CCCCC1)NC(=O)[C@H](CC(N)=O)NC2=O (stereo partly drawn) [I-2109, Ac-PL3-Asn-Cha-B5-Asp-Gln-iPrLys-Ala-Phe-Asn-PyrS2-Phe-BztA-His-NH2] | 0.136 µM | > 20 µM | –
CC(=O)N1CCC[C@]12CC=CCCCC1(CCCC=CCCCCCC[C@@](C)(C(=O)N[C@@H](Cc3ccccc3)C(=O)N[C@@H](Cc3csc4ccccc34)C(=O)N[C@@H](CCC(N)=O)C(N)=O)NC(=O)[C@H](CCO)NC(=O)[C@H](Cc3ccccc3)NC(=O)[C@H](C)NC(=O)[C@H](C)NC(=O)[C@H](CC(=O)O)NC(=O)[C@H](CC(=O)O)NC1=O)NC(=O)[C@H](CC(C)(C)C)NC(=O)[C@H](CC(=O)O)NC2=O (stereo partly drawn) [I-1388, Ac-PL3-Asp-Npg-B5-Asp-Asp-Ala-Ala-Phe-Hse-S8-Phe-BztA-Gln-NH2] | 0.018 µM | – | 11.3 µM

Further lines, results first:

IC50 [1] | IC50 [2] | IC50 ([2]; absolute IC50) | SMILES
0.019 µM | > 20 µM | – | CC(=O)N1CCC[C@]12CC=CCCCC1(CCCC=CCCCOC(=O)N3CC[C@@](C(=O)N[C@@H](Cc4ccsc4)C(=O)N[C@@H](Cc4csc5ccccc45)C(=O)N[C@@H](CCC(N)=O)C(N)=O)(C3)NC(=O)[C@H](CCO)NC(=O)[C@H](Cc3cccc(C(=O)O)c3)NC(=O)[C@H](C)NC(=O)[C@H](C)NC(=O)[C@H](CCc3ccc(O)cc3)NC(=O)[C@H](CC(=O)O)NC1=O)NC(=O)[C@H](CC(C)(C)C)NC(=O)[C@H](CC(=O)O)NC2=O (stereo partly drawn) [I-2117, Ac-PL3-Asp-Npg-B5-Asp-hTyr-Ala-Ala-3COOHF-Hse-PyrS2-3Thi-BztA-Gln-NH2]
0.005 µM | – | 7.4 µM | CC(=O)N1CCC[C@]12CC=CCCCC1(CCCC=CCCCOC(=O)N3CC[C@@](C(=O)N[C@@H](Cc4ccsc4)C(=O)N[C@@H](Cc4csc5ccccc45)C(=O)N[C@@H](CCC(N)=O)C(N)=O)(C3)NC(=O)[C@H](CC(C)C)NC(=O)[C@H](Cc3ccccc3)NC(=O)[C@H](C)NC(=O)[C@H](C)NC(=O)[C@H](CCCC(=O)O)NC(=O)[C@H](CC(=O)O)NC1=O)NC(=O)[C@H](CC(C)(C)C)NC(=O)[C@H](CC(=O)O)NC2=O (stereo partly drawn) [I-1438, Ac-PL3-Asp-Npg-B5-Asp-Aad-Ala-Ala-Phe-Leu-PyrS2-3Thi-BztA-Gln-NH2]
0.148 µM | – | > 20 µM | CC(=O)N1CCC[C@]12CC=CCCCC1(CCCC=CCCCOC(=O)N3CC[C@@](C(=O)N[C@@H](Cc4ccsc4)C(=O)N[C@@H](Cc4csc5ccccc45)C(=O)N[C@@H](CCC(N)=O)C(N)=O)(C3)NC(=O)[C@H](CC(N)=O)NC(=O)[C@H](Cc3ccccc3)NC(=O)[C@H](C)NC(=O)[C@H](C)NC(=O)[C@H]([C@@H](C)O)NC(=O)[C@H](CC(N)=O)NC1=O)NC(=O)[C@H](CC(C)(C)C)NC(=O)[C@H](CC(=O)O)NC2=O (stereo partly drawn) [I-1565, Ac-PL3-Asp-Npg-B5-Asn-Thr-Ala-Ala-Phe-Asn-PyrS2-3Thi-BztA-Gln-NH2]
0.009 µM | – | 8 µM | CC(=O)N1CCC[C@]12CC=CCCCC1(CCCC=CCCCOC(=O)N3CC[C@@](C(=O)N[C@@H](Cc4ccccc4Cl)C(=O)N[C@@H](Cc4csc5ccccc45)C(=O)N[C@@H](CCCCNC(C)C)C(N)=O)(C3)NC(=O)[C@H]([C@@H](C)O)NC(=O)[C@H](Cc3ccccc3)NC(=O)[C@H](C)NC(=O)[C@H](C)NC(=O)[C@H](CN(CC(=O)O)CC(F)(F)F)NC(=O)[C@H](CC(=O)O)NC1=O)NC(=O)[C@H](CC(C)(C)C)NC(=O)[C@H](CC(=O)O)NC2=O (stereo partly drawn) [I-1615, Ac-PL3-Asp-Npg-B5-Asp-TfeGA-Ala-Ala-Phe-Thr-PyrS2-2C1F-BztA-iPrLys-NH2]
0.048 µM | – | 17 µM | CC(=O)N[C@]1(C)CC=CCCCC2(CCCC=CCCCOC(=O)N3CC[C@@](C(=O)N[C@@H](Cc4ccccc4C(F)(F)F)C(=O)N[C@@H](Cc4csc5ccccc45)C(=O)N[C@@H](CCC(N)=O)C(N)=O)(C3)NC(=O)[C@H](CC(C)C)NC(=O)[C@H](Cc3ccccc3)NC(=O)[C@H](C)NC(=O)[C@H](C)NC(=O)[C@H](Cc3cccc(C(=O)O)c3)NC(=O)[C@H](CC(=O)O)NC2=O)NC(=O)[C@H](CC(C)(C)C)NC(=O)[C@H](CC(=O)O)NC1=O (stereo partly drawn) [I-2563, Ac-R3-Asp-Npg-B5-Asp-3COOHF-Ala-Ala-Phe-Leu-PyrS2-2F3MeF-BztA-Gln-NH2]
0.024 µM | – | 9.5 µM | CC(=O)N1CCC[C@]12CC=CCCCC1(CCCC=CCCCOC(=O)N3CC[C@@](C(=O)N[C@@H](Cc4ccsc4)C(=O)N[C@@H](Cc4csc5ccccc45)C(=O)N[C@@H](CCC(N)=O)C(N)=O)(C3)NC(=O)[C@H](CC(C)C)NC(=O)[C@H](Cc3ccccc3)NC(=O)[C@H](C)NC(=O)[C@H](C)NC(=O)[C@H](CO)NC(=O)[C@H](CC(=O)O)NC1=O)NC(=O)[C@H](CC(C)(C)C)NC(=O)[C@H](CC(=O)O)NC2=O (stereo partly drawn) [I-1443, Ac-PL3-Asp-Npg-B5-Asp-Ser-Ala-Ala-Phe-Leu-PyrS2-3Thi-BztA-Gln-NH2]
0.0115 µM | – | 5 µM | CC(=O)N1CCC[C@]12CC=CCCCC1(CCCC=CCCCOC(=O)N3CC[C@@](C(=O)N[C@@H](Cc4ccsc4)C(=O)N[C@@H](Cc4csc5ccccc45)C(=O)N[C@@H](CCC(N)=O)C(N)=O)(C3)NC(=O)[C@H](CC(C)C)NC(=O)[C@H](Cc3ccccc3)NC(=O)[C@H](C)NC(=O)[C@H](C)NC(=O)[C@H](CN(CC(=O)O)Cc3ccccc3)NC(=O)[C@H](CC(=O)O)NC1=O)NC(=O)[C@H](CC(C)(C)C)NC(=O)[C@H](CC(=O)O)NC2=O (stereo partly drawn) [I-1630, Ac-PL3-Asp-Npg-B5-Asp-[Bn]GA-Ala-Ala-Phe-Leu-PyrS2-3Thi-BztA-Gln-NH2]
0.022 µM | – | > 20 µM | CC(=O)N1CCC[C@]12CC=CCCCC1(CCCC=CCCCOC(=O)N3CC[C@@](C(=O)N[C@@H](Cc4ccsc4)C(=O)N[C@@H](Cc4csc5ccccc45)C(=O)N[C@@H](CCC(N)=O)C(N)=O)(C3)NC(=O)[C@H](CC(C)C)NC(=O)[C@H](Cc3ccccc3)NC(=O)[C@H](C)NC(=O)[C@H](CC(=O)N3CCOCC3)NC(=O)[C@H](CC(=O)O)NC(=O)[C@H](CC(=O)O)NC1=O)NC(=O)[C@H](CC(C)(C)C)NC(=O)[C@H](CC(=O)O)NC2=O (stereo partly drawn) [I-1483, Ac-PL3-Asp-Npg-B5-Asp-Asp-MorphAsn-Ala-Phe-Leu-PyrS2-3Thi-BztA-Gln-NH2]
